# Tests used:
# calmodulin = target: T1, calmodulin (Bos taurus, UniProt P62157); assay: Anti-calmodulin activity assay: calmodulin-induced PFK inactivation; type: biochemical, bovine; settings: drug 20 M
# T1 construct: Calmodulin from bovine brain was purified to homogeneity using Phenyl-Sepharose (Pharmacia) chromatography; from tissue; host or cells: bovine brain
# Description: The numerous antimitotic drugs already developed and therapeu- tically used for a large number of pathologies belong to different classes based on their chemical structure and other distinctive features. Antimitotic drugs usually target the tubulin/microtubule network of the cytoskeleton that is formed by assembly of cyto- plasmic tubulin dimers. The stability of the different microtubular structures varies considerably; some of their functions depend on their lability. The lability is augmented by the extreme sensitivity to various drugs. Several synthetic and natural compounds interact specifically with tubulin and/or microtubule, fundamentally destroying its dynamic character and leading to cell death. […] Because of their extensive clinical use, it is important to synthesize additional agents having at least the same biological activity. […] Nevertheless, it is unclear yet how the anti-calmodulin activity of these drugs is related to their desired and undesired pharmacological effects. […] The synthesis of the KAR derivatives are presented. […] Taxol, GTP and trifluoperazine were purchased from Sigma. All organic reagents for synthesis of the new compounds were obtained from Aldrich and were of the highest grade. All other chemicals were reagent grade commercial preparations. […] Tubulin was stored in 1 M sucrose, 10 mM sodium phosphate buffer, 0.5 mM magnesium chloride and 0.1 mM GTP, pH 7.0, at -80C and dialysed against the appropriate buffer before use. […] PFK, aldolase and glycerol-3-phosphate dehydrogenase- triosephosphate isomerase purified from rabbit skeletal muscle were purchased in ammonium sulphate suspensions from Sigma or Boehringer. The enzyme suspensions were centrifuged at 10 000g for 5 min. The pellets were suspended in the appropriate buffer, then the enzymes were gel filtered or dialysed in the same buffer to remove ammonium sulphate. […] (Figure 1B; R1 , CH3; R2 , CH2 CH2 Cl). […] After 2 h incubation at room temperature, 200 ml dried toluene was added to the reaction mixture. […] The mixture was stirred for 30 min. After separation of the organic phase, it was washed with water (3 x 30 ml) and dried with potassium sulphate and evaporated on a water bath of 35-40C at 20-27 hPa. The resulting material was chromatographed on silica gel (500 g, bead size of 0.040- 0.063 mm) column (30 mm x 500 mm) using ethyl acetate/ethanol (9:1) mixture as eluent. […] The mixture was kept for 4 h at room temperature and then evaporated on a water bath at 40C under a vacuum of 80 hPa to a final volume of 5-6 ml. […] (Figure 1B, R1 , CHO; R2 , CH2 CH2 Cl). […] Synthesis of KAR-4 [3-allyl-2,4-dioxo-3,5-spiro-oxazolidino- 4-deacetoxy-vinblastine] (Figure 1B; R1 , CH3; R2 , CH2 CH=CH2 ). […] NMR measurements were carried out on a Varian Unity plus-500 instrument (500 MHz for 1H and 125 MHz for 13C) in DMSO. Chemical shifts were determined relative to dTMS = 0.00 p.p.m. 1H and 13C signal assignments were verified by a concerted use of two-dimensional 1H-1H and 1H-13C shift correlation methods (DQFCOSY, HSQC, HMBC) and NOESY experiments. The gradient-enhanced DQFCOSY, HSQC, HMBC and NOESY experiments were recorded by using the standard spectrometer software package. A mixing time of tmix = 0.5 s was used for the NOESY experiments. […] Mass spectrum was recorded on a Kratos MS 80 instrument using FAB.
# [1] = test system: Mouse leukaemia P388 cells; design: method as in Orosz et al (1997a); settings: P388, single doses i.p.; data published also in ref Orosz et al (1997a); cited from earlier work
structure (smiles),measurement,setting,value
"CC[C@]1(O)C[C@@H]2CN(CCc3c([nH]c4ccccc34)[C@@](C(=O)OC)(c3cc4c(cc3OC)N(C)[C@@H]3[C@]45CCN4CC=C[C@@](CC)(C[C@@]36OC(=O)N(CCCl)C6=O)[C@H]45)C2)C1 [KAR-2, 3′-(β-chloroethyl)-2′,4′-dioxo-3,5′-spiro-oxazolidino-4-deacetoxy-vinblastine]",Effect on calmodulin induced PFK inactivation: Activity (U mg-1),"calmodulin; PFK 1.2 M protomers, calmodulin 3 M, 60 min, without calmodulin 66.6 U mg-1, with calmodulin 8.0 U mg-1",11.1 U mg-1
same,anti-calmodulin activity in the PFK assay (in words),calmodulin,does not display anti-calmodulin activity
same,Anti-calmodulin activity: Efficiency (%),"calmodulin; calculated from the activity data (100% = PFK without calmodulin, 0% = PFK with calmodulin)",5%
same,Dose (mg kg-1) giving the maximal effect,[1],60 mg/kg
same,Maximal effect T/C (%),[1],207%
